Measurements as given in patent US12534466B2, “Crystalline forms of pyrimidino diazepine derivative” (CYCLACEL LIMITED, priority 2019, dated 2026).
Counter-ions that a name gives are not always drawn. Like-named read-outs stand apart in the source and are kept apart here.

Legend:
[1] = target: polo-like kinase 1 (PLK1) (Homo sapiens, UniProt P53350); conditions: cited from earlier work
[2] = Gravimetric vapour sorption (GVS/DVS) hygroscopicity; assay type: physicochemical; conditions: for Hygroscopicity classification: weight increase from 40-80% RH (25° C.), classes of Table 9, monohydrate
Procedure: Sorption isotherms were obtained using a Hiden Isochema moisture sorption analyser (model IGAsorp), controlled by IGAsorp Systems Software V6.50.48. The sample was maintained at a constant temperature (25° C.) by the instrument controls. The humidity was controlled by mixing streams of dry and wet nitrogen, with a total flow of 250 ml·min^−1. The instrument was verified for relative humidity content by measuring three calibrated Rotronic salt solutions (10-50-88%). The weight change of the sample was monitored as a function of humidity by a microbalance (accuracy+/−0.005 mg). A defined amount of sample was placed in a tared mesh stainless steel basket under ambient conditions. A full experimental cycle typically consisted of three scans (sorption, desorption and sorption) at a constant temperature (25° C.) and 10% RH intervals over a 0-90% range (60 minutes for each humidity level).

Chain of polo-like kinase 1 (PLK1) (P53350 whole entry): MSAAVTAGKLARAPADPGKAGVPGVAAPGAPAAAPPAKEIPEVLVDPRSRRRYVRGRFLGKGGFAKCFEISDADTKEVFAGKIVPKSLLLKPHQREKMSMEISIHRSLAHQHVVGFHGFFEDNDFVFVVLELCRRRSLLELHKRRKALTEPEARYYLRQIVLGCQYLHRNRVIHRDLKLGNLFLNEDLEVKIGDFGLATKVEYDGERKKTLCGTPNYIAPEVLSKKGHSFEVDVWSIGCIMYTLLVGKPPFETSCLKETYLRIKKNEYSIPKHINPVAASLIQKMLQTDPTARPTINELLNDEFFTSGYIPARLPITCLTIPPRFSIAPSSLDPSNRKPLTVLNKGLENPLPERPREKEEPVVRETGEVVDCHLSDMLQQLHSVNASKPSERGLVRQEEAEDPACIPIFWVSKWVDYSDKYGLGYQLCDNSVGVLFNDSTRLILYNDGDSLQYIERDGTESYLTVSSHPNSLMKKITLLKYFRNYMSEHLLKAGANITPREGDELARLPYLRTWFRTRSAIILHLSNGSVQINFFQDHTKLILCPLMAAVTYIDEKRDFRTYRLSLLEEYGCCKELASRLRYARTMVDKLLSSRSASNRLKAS

Hygroscopicity (in words) [2] | Stability of the crystalline form (in words) [2] | Weight change (%) from 40 to 80% RH @25° C. (sorption cycle by GVS) ([2]; 40-80% RH, 25° C., sorption cycle) | Hygroscopicity classification ([2]; listed as monohydrochloride monohydrate salt) | Hygroscopicity classification [2] | Compound | Inhibition of PLK1 (in words) [1] | Inhibition of PLK1 (in words) ([1]; listed as compound (I))
 |  |  |  |  | COc1cc(C(=O)N[C@H]2CC[C@H](N3CCN(C)CC3)CC2)ccc1Nc1ncc2c(n1)N(C1CCCC1)CC1(CC1)C(=O)N2C [Compound (I), 4-(9′-cyclopentyl-5″-methyl-6′-oxo-5′,6′,8′,9′-tetrahydrospiro[cyclopropane-1,7′-pyrimido[4,5-b][1,4]diazepine]-2′-ylamino)-N((trans)-4-(4-methylpiperazin-1-yl)cyclohexyl)-3-methoxybenzamide] | potent inhibitory activity | potent inhibitor
relatively low hygroscopicity | stable crystalline form | +0.9% | slightly hygroscopic | Slightly hygroscopic (≥0.2% and <2%) | COc1cc(C(=O)N[C@H]2CC[C@H](N3CCN(C)CC3)CC2)ccc1Nc1ncc2c(n1)N(C1CCCC1)CC1(CC1)C(=O)N2C [Monohydrochloride monohydrate] |  | 
